Experimental data as given in ChEMBL document CHEMBL1201862, “PubChem BioAssay data set” (2004).
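Grown in 96-well plates, cells were treated for 48 hours with each compound at five concentrations. Insufficient inhibition: endpoint recorded as highest concentration tested. GI50 is the concentration that inhibits growth by half.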 The source made the active and inactive calls. No stated cut-off is given here; in the data, active = GI50 up to about 1.1 µM and inactive = higher.

Columns and labels:
Experiment in all cases: NCI tumour cell line growth inhibition, 48 h
HT-29 = system: HT-29
NCI-H460 = system: NCI-H460
CAKI-1 = system: CAKI-1
SW-620 = system: SW-620
COLO 205 = system: COLO 205
A549 = system: A549
SK-MEL-5 = system: SK-MEL-5
IGROV-1 = system: IGROV-1
Malme-3M = system: Malme-3M
SK-OV-3 = system: SK-OV-3
SN12C = system: SN12C
KM-20L2 = system: KM-20L2
OVCAR-5 = system: OVCAR-5
UACC-62 = system: UACC-62
HOP-62 = system: HOP-62
CCRF-CEM = system: CCRF-CEM
DU-145 = system: DU-145
HCC 2998 = system: HCC 2998
NCI/ADR-RES = system: NCI/ADR-RES
PC-3 = system: PC-3

SMILES	GI50 (HT-29)	GI50 (NCI-H460)	GI50 (CAKI-1)	GI50 (SW-620)	GI50 (COLO 205)	GI50 (A549)	GI50 (SK-MEL-5)	GI50 (IGROV-1)	GI50 (Malme-3M)	GI50 (SK-OV-3)	GI50 (SN12C)	GI50 (KM-20L2)	GI50 (OVCAR-5)	GI50 (UACC-62)	GI50 (HOP-62)	GI50 (CCRF-CEM)	GI50 (DU-145)	GI50 (HCC 2998)	GI50 (NCI/ADR-RES)	GI50 (PC-3)
Nc1ccc(C(=O)CC2(O)C(=O)Nc3ccccc32)cc1 (stereo unspecified)	> 100 µM (inactive)	> 100 µM (inactive)	> 100 µM (inactive)	> 100 µM (inactive)	> 100 µM (inactive)	> 100 µM (inactive)	> 100 µM (inactive)	> 100 µM (inactive)	> 100 µM (inactive)	> 100 µM (inactive)	> 100 µM (inactive)	> 100 µM (inactive)	> 100 µM (inactive)	> 100 µM (inactive)	–	–	–	–	–	–
CC(=O)OCC(OC(C)=O)C(OC(C)=O)C(OC(C)=O)C(=O)CNn1c(-c2ccccc2Cl)nc2ccccc2c1=O (stereo unspecified)	> 100 µM (inactive)	> 100 µM (inactive)	> 100 µM (inactive)	> 100 µM (inactive)	> 100 µM (inactive)	> 100 µM (inactive)	> 100 µM (inactive)	–	> 100 µM (inactive)	> 100 µM (inactive)	> 100 µM (inactive)	> 100 µM (inactive)	> 100 µM (inactive)	> 100 µM (inactive)	> 100 µM (inactive)	84.3 µM (inactive)	–	–	–	–
COc1ccc2c3c1OC1C(=O)C=CC4(CC2)N(C)CCC314 (stereo unspecified)	28.6 µM (inactive)	16.6 µM (inactive)	20.1 µM (inactive)	14.2 µM (inactive)	6.19 µM (inactive)	22.8 µM (inactive)	10.4 µM (inactive)	23.7 µM (inactive)	35.1 µM (inactive)	36.4 µM (inactive)	21.4 µM (inactive)	–	29.5 µM (inactive)	> 10 µM (inactive)	29.6 µM (inactive)	12.7 µM (inactive)	14.3 µM (inactive)	13.8 µM (inactive)	22.9 µM (inactive)	21.7 µM (inactive)
Cc1c2ccncc2c(C)c2c1sc1ccccc12	6.1 µM (inactive)	2.31 µM (inactive)	7.45 µM (inactive)	7.06 µM (inactive)	12.3 µM (inactive)	4.33 µM (inactive)	7.87 µM (inactive)	5.94 µM (inactive)	10.8 µM (inactive)	13.1 µM (inactive)	9.38 µM (inactive)	–	21 µM (inactive)	5.24 µM (inactive)	7.38 µM (inactive)	3.31 µM (inactive)	13.3 µM (inactive)	11.8 µM (inactive)	7.08 µM (inactive)	11.1 µM (inactive)
COC(=O)CC1(O)C=CC(=O)C=C1 [JACARANONE]	6.24 µM (inactive)	2.2 µM (inactive)	3.83 µM (inactive)	4.76 µM (inactive)	4.68 µM (inactive)	8.67 µM (inactive)	3.29 µM (inactive)	2.02 µM (inactive)	2.81 µM (inactive)	14.1 µM (inactive)	9.31 µM (inactive)	–	8.99 µM (inactive)	2.13 µM (inactive)	6.76 µM (inactive)	1.99 µM (inactive)	5.06 µM (inactive)	15.3 µM (inactive)	3.63 µM (inactive)	2.57 µM (inactive)
O=[N+]([O-])c1ccc(NC(=S)Nc2ccccn2)cc1	31.7 µM (inactive)	23.3 µM (inactive)	5.11 µM (inactive)	40.3 µM (inactive)	18.5 µM (inactive)	19.1 µM (inactive)	43.3 µM (inactive)	11.9 µM (inactive)	72.9 µM (inactive)	47 µM (inactive)	37.2 µM (inactive)	–	27.7 µM (inactive)	19.9 µM (inactive)	17.3 µM (inactive)	> 64.4 µM (inactive)	7.5 µM (inactive)	> 100 µM (inactive)	33.4 µM (inactive)	40.6 µM (inactive)
Nc1cc(-c2ccc(Cl)cc2)nn1-c1nc2ccccc2nc1-c1ccccc1	11.9 µM (inactive)	> 100 µM (inactive)	> 100 µM (inactive)	> 100 µM (inactive)	> 100 µM (inactive)	> 100 µM (inactive)	92 µM (inactive)	38.3 µM (inactive)	50.9 µM (inactive)	> 100 µM (inactive)	80.7 µM (inactive)	–	> 100 µM (inactive)	> 100 µM (inactive)	49 µM (inactive)	> 100 µM (inactive)	> 100 µM (inactive)	> 100 µM (inactive)	> 100 µM (inactive)	22.2 µM (inactive)
Cn1nnnc1SC(F)(F)c1nc2ccccc2o1	> 100 µM (inactive)	> 100 µM (inactive)	> 100 µM (inactive)	> 100 µM (inactive)	> 100 µM (inactive)	> 100 µM (inactive)	> 100 µM (inactive)	> 100 µM (inactive)	> 100 µM (inactive)	> 100 µM (inactive)	> 100 µM (inactive)	–	> 100 µM (inactive)	> 100 µM (inactive)	> 100 µM (inactive)	25.1 µM (inactive)	> 100 µM (inactive)	> 100 µM (inactive)	> 100 µM (inactive)	> 100 µM (inactive)
CC1=C2C(=O)c3ccccc3C(=O)[C@H]2C[C@@H](N2CCCCCC2=O)O1	27 µM (inactive)	18.8 µM (inactive)	16.9 µM (inactive)	17.3 µM (inactive)	17.3 µM (inactive)	20.3 µM (inactive)	16.1 µM (inactive)	16.4 µM (inactive)	12.9 µM (inactive)	27.5 µM (inactive)	17.7 µM (inactive)	–	16.7 µM (inactive)	19.2 µM (inactive)	19 µM (inactive)	3.44 µM (inactive)	18.3 µM (inactive)	16.7 µM (inactive)	22.3 µM (inactive)	17.9 µM (inactive)
CC1CC(=O)Nc2ccc(/N=N/N(C)C)cc2N1C=O (stereo unspecified)	> 100 µM (inactive)	> 100 µM (inactive)	> 100 µM (inactive)	> 100 µM (inactive)	> 100 µM (inactive)	> 100 µM (inactive)	> 100 µM (inactive)	> 100 µM (inactive)	> 100 µM (inactive)	> 100 µM (inactive)	> 100 µM (inactive)	–	> 100 µM (inactive)	> 100 µM (inactive)	> 100 µM (inactive)	> 100 µM (inactive)	> 100 µM (inactive)	> 100 µM (inactive)	> 100 µM (inactive)	> 100 µM (inactive)
COc1ccc(OC2OC(CO)C(O)C(O)C2O)cc1 (stereo unspecified)	> 100 µM (inactive)	> 100 µM (inactive)	> 100 µM (inactive)	> 100 µM (inactive)	> 100 µM (inactive)	> 100 µM (inactive)	> 100 µM (inactive)	> 100 µM (inactive)	> 100 µM (inactive)	> 100 µM (inactive)	> 100 µM (inactive)	–	> 100 µM (inactive)	> 100 µM (inactive)	> 100 µM (inactive)	> 100 µM (inactive)	> 100 µM (inactive)	> 100 µM (inactive)	> 100 µM (inactive)	> 100 µM (inactive)
CC(=O)Nc1sc([N+](=O)[O-])cc1S(=O)(=O)c1ccc(Cl)cc1	3.13 µM (inactive)	1.65 µM (inactive)	3.31 µM (inactive)	5.37 µM (inactive)	1.29 µM (inactive)	2.4 µM (inactive)	1.12 µM (active)	4.69 µM (inactive)	2.48 µM (inactive)	2.5 µM (inactive)	3.8 µM (inactive)	–	4.7 µM (inactive)	1.67 µM (inactive)	1.39 µM (inactive)	8.2 µM (inactive)	3.3 µM (inactive)	2.04 µM (inactive)	3.22 µM (inactive)	2.02 µM (inactive)
O=C(/C=C/c1ccc(OCc2ccccc2)cc1)NCc1ccc(C(=O)NCCc2c[nH]c3ccccc23)cc1	4.33 µM (inactive)	15.4 µM (inactive)	9.18 µM (inactive)	> 65.2 µM (inactive)	> 75.5 µM (inactive)	17.7 µM (inactive)	17.8 µM (inactive)	15.9 µM (inactive)	12.9 µM (inactive)	15.7 µM (inactive)	23.8 µM (inactive)	–	18.2 µM (inactive)	15.5 µM (inactive)	3.66 µM (inactive)	70.6 µM (inactive)	32.8 µM (inactive)	43.2 µM (inactive)	> 100 µM (inactive)	12 µM (inactive)
CC(=O)Oc1c2c(c3n(c1=O)CCCC3)C(=O)N(c1ccccc1)C2=O	94.2 µM (inactive)	> 100 µM (inactive)	> 100 µM (inactive)	> 100 µM (inactive)	> 100 µM (inactive)	> 100 µM (inactive)	53.3 µM (inactive)	78.5 µM (inactive)	> 100 µM (inactive)	> 100 µM (inactive)	83.2 µM (inactive)	–	> 100 µM (inactive)	63.7 µM (inactive)	> 100 µM (inactive)	> 100 µM (inactive)	> 100 µM (inactive)	30.8 µM (inactive)	65.3 µM (inactive)	46.5 µM (inactive)
CCC(CCCN)Nc1cc(OC)cc2c(C)ccnc12 (stereo unspecified)	14.3 µM (inactive)	17.7 µM (inactive)	15.5 µM (inactive)	20.8 µM (inactive)	18.2 µM (inactive)	15.6 µM (inactive)	17.8 µM (inactive)	16.8 µM (inactive)	19.6 µM (inactive)	13.6 µM (inactive)	21.2 µM (inactive)	–	17.7 µM (inactive)	> 10 µM (inactive)	15.1 µM (inactive)	18.4 µM (inactive)	17.5 µM (inactive)	18.8 µM (inactive)	25.1 µM (inactive)	11.6 µM (inactive)
